Experimental findings from US20200270576A1, “Ex Vivo Maintenance and Expansion of Stem Cells” (priority 2017, published 2020) are described below.

The test system of test [1] is HSCs. Nature of the test: Retroviral (MSCV-IRES-GFP) transduction of HSCs, GFP in colonies. It counts as cell-based, mouse. The following applies: medium supplemented with 17-AAG; colonies assessed ten days after plating. The method, then:
FIG. 19 depicts that addition of 17-AAG to culture medium supported highly efficient genetic modification of HSCs. The frequency of HSCs that were transduced with a GFP encoding retrovirus in culture is shown.
We tested whether the presence of HSP90 inhibitors in cell culture medium permitted efficient genetic modification of HSCs. Purified HSCs were cultured overnight in medium supplemented with 17-AAG. Retroviral supernatant (containing retrovirus encoding MSCV-IRES-GFP) was added two times (two hours apart), and the cells were cultured for an additional 24 hours. After culture, the cells were plated in methylcellulose semi-solid medium supplemented with hematopoietic cytokines. Ten days later, individual colonies (derived from single HSCs) were assessed for GFP expression by flow cytometry. […] We expect this will also be true for other HSP90 inhibitors, TRiC inhibitors and Hsf1 agonists. In addition, we expect that these agents will also be compatible for genetic modification of stem cells by other technologies (in addition to retrovirus), including but not limited to lentivirus, CRISPR and other genetic modification or editing technologies.

The subject of another test is Hsf1. Kind of test: Hsf1 expression and localization by immunofluorescence in cultured HSCs. It counts as cell-based, mouse. The following applies: 10 days culture; 17-AAG 5 nM, HSF1A 8 uM final concentration. The text has this:
FIG. 14 depicts representative immunofluorescence staining of HSCs cultured for 10 days in the presence or absence of 17-AAG or HSF1A. Addition of 17-AAG or HSF1A to culture medium increased Hsf1 accumulation in the nucleus of cultured HSCs. Hsf1-deficient HSCs and cells stained without primary antibody (Neg Con) are shown as controls.
Since Hsf1 promoted HSC maintenance and protein homeostasis in vitro (FIG. 13), we investigated whether increasing Hsf1 expression or activity would further enhance HSC maintenance. […] Hsf1 can become active as a transcription factor when it translocates to the nucleus. We thus tested whether inhibitors of HSP90 or TRiC would promote Hsf1 accumulation in the nucleus of cultured HSCs by culturing HSCs for 10 days in the presence or absence of 17-AAG (HSP90 inhibitor; 5 nM final concentration) or HSF1A (TRiC inhibitor; 8 uM final concentration), and assessed Hsf1 expression and localization by immunofluorescence.

In test [2] the test system is HSCs. Nature of the test: Competitive transplantation of HSCs cultured 10 days, with serial transplantation. Format: cell-based, murine. The text has this: FIG. 16A-B depict that HSC functionality is maintained and expanded in vitro by interventions that can induce/activate Hsf1. FIG. 16A depicts donor cell engraftment 16 weeks after transplantation of 10 HSCs cultured for 10 days in the presence or absence of an HSP90 inhibitor (17-AAG) or TRiC inhibitor (HSF1A) or from 10 freshly isolated HSCs. Cells were transplanted with 2×10^5 freshly isolated congenic bone marrow cells (n=3 independent experiments with 3-5 recipients/condition/experiment). […] Addition of either 17-AAG or HSF1A increased the reconstituting potential of cultured HSCs as compared to both control cultured and freshly isolated HSCs.
To test if HSCs depend on Hsf1 for their maintenance in vitro, we conditionally deleted Hsf1 from HSCs, cultured them for 10 days and assessed their long-term multilineage reconstituting activity in competitive transplantation assays. The assay for testing HSC function is to assess their capacity to give long-term (16+ week) multilineage (B cell, T cell and myeloid cell) reconstitution of the blood system of an irradiated transplant recipient. A competitive transplantation assay provides a quantitative readout of HSC regenerative activity.
Modest declines in proteostasis impair HSC maintenance in vivo. […] This raises the possibility that increasing Hsf1 activity could promote HSC maintenance in vitro by enhancing proteostasis capacity. To test if HSP90 inhibitors or TRiC inhibitors promote HSC maintenance in vitro, purified HSCs were sorted from young adult murine bone marrow (CD45.1^+) into 96-well plates (10/well) containing our HSC medium supplemented with 17-AAG or HSF1A. HSCs were cultured for 10 days and competitively transplanted with 2×10^5 freshly isolated congenic bone marrow cells (CD45.2^+) into irradiated mice (CD45.2^+). Recipient mice were bled monthly (for 4 months) to assess levels of donor-derived CD45.1^+ hematopoietic cells. Self-renewal capacity of HSCs was assessed by serially transplanting hematopoietic cells from the primary recipients into secondary irradiated recipients (3×10^6 cells/recipient). […] Similar results are expected for other HSP90 or TRiC inhibitors.
To test if HSP90 inhibitors or TRiC inhibitors enable HSC expansion in vitro, purified HSCs were sorted from young adult bone marrow (CD45.1^+) into 96-well plates (10/well) containing HSC medium supplemented with 17-AAG or HSF1A. HSCs were cultured for 10 days and competitively transplanted with 2×10^5 freshly isolated congenic bone marrow cells (CD45.2^+) into irradiated mice (CD45.2^+). At the same time, 10 freshly isolated HSCs were transplanted with 2×10^5 freshly isolated congenic bone marrow cells into irradiated mice. Recipient mice were bled monthly (for 4 months) to assess levels of donor-derived CD45.1^+ hematopoietic cells. Self-renewal capacity of HSCs was assessed by serially transplanting hematopoietic cells (3×10^6 cells/recipient) into secondary irradiated recipients. […] Similar results are expected for other HSP90 or TRiC inhibitors.

The subject of test [3] is Hsf1-deficient and control HSCs. Nature of the test: Competitive transplantation of cultured wild-type and Hsf1-deficient HSCs. Format: cell-based, mice. The note with it: 12 weeks after transplantation. The text has this:
FIG. 17 depicts that Hsf1 is required for 17-AAG and HSF1A to enhance HSC maintenance and expansion in vitro. Donor cell engraftment 12 weeks after transplantation of 10 wild-type and Hsf1-deficient HSCs cultured for 10 days in the presence or absence of 17-AAG, HSF1A or DMSO. Cells were transplanted with 2×10^5 freshly isolated congenic bone marrow cells (n=7-9; *P<0.05, **P<0.01).
We tested whether the positive effects of 17-AAG and HSF1A on HSC maintenance/expansion in vitro were mediated by Hsf1. Purified Hsf1-deficient and control HSCs were sorted from adult bone marrow (CD45.2^+) into 96-well plates (10/well) containing HSC medium supplemented with 17-AAG, HSF1A or vehicle (DMSO). HSCs were cultured for 10 days and competitively transplanted with 2×10^5 freshly isolated congenic bone marrow cells (CD45.1^+) into irradiated mice (CD45.1^+). Recipient mice were bled monthly to assess levels of donor-derived CD45.2^+ hematopoietic cells. […] However, the positive effect of 17-AAG and HSF1A was lost with Hsf1-deficient HSCs (FIG. 17).

A further test has as its system CD150+CD48-LSK HSCs. Nature of the test: Frequency of CD150+CD48-LSK cells in 10-day HSC cultures. Format: cell-based, mouse. The following applies: 10 HSCs/well, 10 days culture. The method, then:
FIG. 18 depicts that addition of 17-AAG to culture medium increased the frequency of CD150^+CD48^−LSK HSCs in 10-day HSC cultures as compared to controls.
To further test if HSP90 inhibitors promote HSC maintenance/expansion, we cultured purified HSCs (10/well) for 10 days in the presence or absence of 17-AAG, and assessed the frequency of CD150^+CD48^−LSK cells in culture. CD150^+CD48^−LSK cells were about ˜4-fold enriched when 17-AAG was added to the culture medium (FIG. 18). […] Similar results are expected for other HSP90 inhibitors, TRiC inhibitors and agonists of Hsf1.

Test [4] deals with HSCs. Nature of the test: TMI fluorescence (unfolded protein abundance) in cultured HSCs. Format: cell-based, mouse. The note with it: 18 hours in culture. On the procedure:
FIG. 15 depicts that addition of 17-AAG to culture medium reduced TMI fluorescence (unfolded protein abundance) within cultured HSCs (18 hour cultures shown).
Hsf1 promoted protein homeostasis maintenance in cultured HSCs (FIG. 13B), and 17-AAG promoted Hsf1 accumulation in cultured HSCs (FIG. 14). We thus investigated whether addition of 17-AAG to culture medium could promote protein homeostasis maintenance in HSCs. To test this, HSCs were cultured in the presence or absence (vehicle only; DMSO) of 17-AAG. After 18 hours in culture, we assessed protein homeostasis by quantifying unfolded protein abundance based on TMI fluorescence.

As for `C=CCNC1=C2C[C@@H](C)C[C@H](OC)[C@H](O)[C@@H](C)/C=C(\C)[C@H](OC(N)=O)[C@@H](OC)/C=C\C=C(/C)C(=O)NC(=CC1=O)C2=O` [17-AAG, 17-N-Allylamino-17-demethoxygeldanamycin], in the test with HSCs [1], the “colonies in which GFP was detected” value is on record as 22/25 and the “frequency of GFP-positive colonies (transduced HSCs)” value is 88%. Also, the “Hsf1 abundance in the nucleus of cultured HSCs” value with Hsf1 is on record as “increase Hsf1 abundance in the nucleus”. Moreover, the “donor cell reconstitution vs recipients of freshly isolated HSCs” value with HSCs [2] (10 HSCs cultured 10 days vs 10 freshly isolated HSCs) is given as “higher levels of donor cell reconstitution as compared to recipients of freshly isolated HSCs”. Moreover, the “donor cell reconstitution in primary recipients vs HSCs cultured without agent” value in the test with HSCs [2] (10 HSCs cultured 10 days, with 2x10^5 congenic bone marrow cells, 16 weeks) is recorded as “significantly higher levels of donor cell reconstitution as compared to controls”. Moreover, the “fraction of recipients with long-term multilineage reconstitution vs HSCs cultured without agent” value with HSCs [2] (primary and secondary transplants, 16 week, >0.5% B-, T-, myeloid cells) is listed as “greater fraction”. Moreover, the “fraction of recipients with long-term multilineage reconstitution vs freshly isolated HSCs” value in the test on HSCs [2] (secondary transplants) is given as “significantly greater fraction”. Also, in the test with HSCs [2] (serial transplant, 3x10^6 cells/recipient), the “donor cell reconstitution in secondary recipients vs HSCs cultured without agent” value is “even more pronounced”. Further, the “donor cell reconstitution vs controls (DMSO), control HSCs” value in test [3] (10 HSCs cultured 10 days) is listed as “higher levels of donor cell reconstitution as compared to controls”. For the same molecule, the “positive effect on donor cell reconstitution with Hsf1-deficient HSCs” value in test [3] (Hsf1-deficient HSCs cultured 10 days) is listed as “lost”. The “enrichment of CD150+CD48-LSK cells vs culture without agent” value with CD150+CD48-LSK HSCs is given as ~4 fold. Also, the “TMI fluorescence (unfolded protein abundance) vs vehicle (DMSO) controls” value with HSCs [4] is given as “less TMI fluorescence than controls”.
